Measured values from PubChem BioAssay (NCI).
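Cells were grown in 96-well plates and exposed to each compound for 48 hours at five concentrations; endpoints were interpolated linearly between bracketing concentrations, or set to the highest concentration if not reached. TGI: total growth inhibition.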

Experiments:
Experiment in all cases: NCI anticancer screen, dose series, 48 h
786-0 renal = tested on: 786-0 renal
A498 renal = tested on: A498 renal
A549 NSCLC = tested on: A549 NSCLC
ACHN renal = tested on: ACHN renal
BT-549 breast = tested on: BT-549 breast
CAKI-1 renal = tested on: CAKI-1 renal
CCRF-CEM leukemia = tested on: CCRF-CEM leukemia
COLO 205 colon = tested on: COLO 205 colon
DU-145 prostate = tested on: DU-145 prostate
EKVX NSCLC = tested on: EKVX NSCLC
HCC-2998 colon = tested on: HCC-2998 colon
HCT-116 colon = tested on: HCT-116 colon
HCT-15 colon = tested on: HCT-15 colon
HL-60(TB) leukemia = tested on: HL-60(TB) leukemia
HOP-62 NSCLC = tested on: HOP-62 NSCLC
HOP-92 NSCLC = tested on: HOP-92 NSCLC
HS 578T breast = tested on: HS 578T breast
HT29 colon = tested on: HT29 colon
IGROV1 ovarian = tested on: IGROV1 ovarian
K-562 leukemia = tested on: K-562 leukemia
KM12 colon = tested on: KM12 colon
LOX IMVI melanoma = tested on: LOX IMVI melanoma
M14 melanoma = tested on: M14 melanoma
MALME-3M melanoma = tested on: MALME-3M melanoma
MDA-MB-231 breast = tested on: MDA-MB-231 breast
MDA-MB-435 = tested on: MDA-MB-435
MDA-N = tested on: MDA-N
MOLT-4 leukemia = tested on: MOLT-4 leukemia
NCI-H226 lung = tested on: NCI-H226 lung
NCI-H23 lung = tested on: NCI-H23 lung
NCI-H460 lung = tested on: NCI-H460 lung
NCI-H522 lung = tested on: NCI-H522 lung
NCI/ADR-RES ovarian = tested on: NCI/ADR-RES ovarian
OVCAR-3 ovarian = tested on: OVCAR-3 ovarian
OVCAR-4 ovarian = tested on: OVCAR-4 ovarian
OVCAR-5 ovarian = tested on: OVCAR-5 ovarian
OVCAR-8 ovarian = tested on: OVCAR-8 ovarian
RPMI-8226 leukemia = tested on: RPMI-8226 leukemia
SF-268 CNS = tested on: SF-268 CNS
SF-295 CNS = tested on: SF-295 CNS
SK-MEL-2 melanoma = tested on: SK-MEL-2 melanoma
SK-MEL-28 melanoma = tested on: SK-MEL-28 melanoma
SK-MEL-5 melanoma = tested on: SK-MEL-5 melanoma
SK-OV-3 ovarian = tested on: SK-OV-3 ovarian
SN12C renal = tested on: SN12C renal
SNB-75 CNS = tested on: SNB-75 CNS
SR leukemia = tested on: SR leukemia
SW-620 colon = tested on: SW-620 colon
T-47D breast = tested on: T-47D breast
TK-10 renal = tested on: TK-10 renal
U251 CNS = tested on: U251 CNS
UACC-257 melanoma = tested on: UACC-257 melanoma
UACC-62 melanoma = tested on: UACC-62 melanoma
UO-31 renal = tested on: UO-31 renal

**Q.** Which TGI (786-0 renal) does the source give for CN(C)/C=C/C=C(/C=N/S(=O)(=O)C(F)(F)F)C1C=CN(S(=O)(=O)C(F)(F)F)C=C1 here?
**A.** The TGI was greater than 100 µM.

**Q.** And the TGI (A498 renal)?
**A.** The TGI was 88.8 µM.

**Q.** What about the TGI (A549 NSCLC) of the same compound?
**A.** The TGI was greater than 100 µM.

**Q.** What about the TGI (ACHN renal) of the same compound?
**A.** The TGI was 84.7 µM.

**Q.** What about the TGI (BT-549 breast) of the same compound?
**A.** Its TGI is 70.1 µM.

**Q.** What about the TGI (CAKI-1 renal) of the same compound?
**A.** The TGI was 76.6 µM.

**Q.** And the TGI (CCRF-CEM leukemia)?
**A.** Its TGI is 79.9 µM.

**Q.** What about the TGI (COLO 205 colon) of the same compound?
**A.** The TGI was 32.6 µM.

**Q.** What about the TGI (DU-145 prostate) of the same compound?
**A.** Its TGI is greater than 100 µM.

**Q.** And the TGI (EKVX NSCLC)?
**A.** Its TGI is 87.2 µM.

**Q.** And the TGI (HCC-2998 colon)?
**A.** The TGI was 78.5 µM.

**Q.** And the TGI (HCT-116 colon)?
**A.** The TGI was 87.2 µM.

**Q.** What about the TGI (HCT-15 colon) of the same compound?
**A.** The TGI was 57.8 µM.

**Q.** What about the TGI (HL-60(TB) leukemia) of the same compound?
**A.** Its TGI is 46.4 µM.

**Q.** And the TGI (HOP-62 NSCLC)?
**A.** Its TGI is greater than 100 µM.

**Q.** And the TGI (HOP-92 NSCLC)?
**A.** Its TGI is 90 µM.

**Q.** What about the TGI (HS 578T breast) of the same compound?
**A.** The TGI was greater than 100 µM.

**Q.** And the TGI (HT29 colon)?
**A.** The TGI was 75.2 µM.

**Q.** What about the TGI (IGROV1 ovarian) of the same compound?
**A.** Its TGI is greater than 100 µM.

**Q.** What about the TGI (K-562 leukemia) of the same compound?
**A.** Its TGI is greater than 100 µM.

**Q.** What about the TGI (KM12 colon) of the same compound?
**A.** The TGI was 71.1 µM.

**Q.** What about the TGI (LOX IMVI melanoma) of the same compound?
**A.** The TGI was greater than 100 µM.

**Q.** And the TGI (M14 melanoma)?
**A.** Its TGI is greater than 100 µM.

**Q.** And the TGI (MALME-3M melanoma)?
**A.** Its TGI is 82.7 µM.

**Q.** What about the TGI (MDA-MB-231 breast) of the same compound?
**A.** Its TGI is 81.7 µM.

**Q.** And the TGI (MDA-MB-435)?
**A.** Its TGI is 73.5 µM.

**Q.** What about the TGI (MDA-N) of the same compound?
**A.** The TGI was greater than 100 µM.

**Q.** And the TGI (MOLT-4 leukemia)?
**A.** The TGI was 71 µM.

**Q.** And the TGI (NCI-H226 lung)?
**A.** Its TGI is 67.3 µM.

**Q.** And the TGI (NCI-H23 lung)?
**A.** The TGI was 56.6 µM.

**Q.** And the TGI (NCI-H460 lung)?
**A.** Its TGI is greater than 100 µM.

**Q.** And the TGI (NCI-H522 lung)?
**A.** The TGI was 52.4 µM.

**Q.** And the TGI (NCI/ADR-RES ovarian)?
**A.** The TGI was 96.1 µM.

**Q.** What about the TGI (OVCAR-3 ovarian) of the same compound?
**A.** The TGI was 98 µM.

**Q.** And the TGI (OVCAR-4 ovarian)?
**A.** Its TGI is 42.9 µM.

**Q.** What about the TGI (OVCAR-5 ovarian) of the same compound?
**A.** The TGI was 91.7 µM.

**Q.** What about the TGI (OVCAR-8 ovarian) of the same compound?
**A.** Its TGI is greater than 100 µM.

**Q.** What about the TGI (RPMI-8226 leukemia) of the same compound?
**A.** The TGI was greater than 100 µM.

**Q.** What about the TGI (SF-268 CNS) of the same compound?
**A.** Its TGI is greater than 100 µM.

**Q.** What about the TGI (SF-295 CNS) of the same compound?
**A.** Its TGI is greater than 100 µM.

**Q.** And the TGI (SK-MEL-2 melanoma)?
**A.** The TGI was 54.1 µM.

**Q.** And the TGI (SK-MEL-28 melanoma)?
**A.** Its TGI is greater than 100 µM.

**Q.** And the TGI (SK-MEL-5 melanoma)?
**A.** Its TGI is 51.7 µM.

**Q.** And the TGI (SK-OV-3 ovarian)?
**A.** The TGI was 94 µM.

**Q.** What about the TGI (SN12C renal) of the same compound?
**A.** Its TGI is greater than 100 µM.

**Q.** What about the TGI (SNB-75 CNS) of the same compound?
**A.** Its TGI is 50.6 µM.

**Q.** And the TGI (SR leukemia)?
**A.** Its TGI is greater than 100 µM.

**Q.** What about the TGI (SW-620 colon) of the same compound?
**A.** The TGI was greater than 100 µM.

**Q.** What about the TGI (T-47D breast) of the same compound?
**A.** Its TGI is 75 µM.

**Q.** And the TGI (TK-10 renal)?
**A.** Its TGI is greater than 100 µM.

**Q.** What about the TGI (U251 CNS) of the same compound?
**A.** Its TGI is greater than 100 µM.

**Q.** What about the TGI (UACC-257 melanoma) of the same compound?
**A.** The TGI was 77.7 µM.

**Q.** And the TGI (UACC-62 melanoma)?
**A.** Its TGI is 83.9 µM.

**Q.** What about the TGI (UO-31 renal) of the same compound?
**A.** Its TGI is 89.4 µM.
